These results are taken from patent US6584980B1, “Tobacco products with stabilized additives having vitamin E activity” (Rousseau Research, Institute, priority 1998, dated 2003).

The test system of one series is smoker and non-smoker. Briefly: Comparison of a normal filterless cigarette and a filterless cigarette with dry Vitamin E analog, smoked. The series is classed as in vivo. The source says: A comparison was made between a normal filterless cigarette and a filterless cigarette modified to include a substantially pure, “dry” form of Vitamin E analog. For this comparison, […] of CHESTERFIELD® tobacco were removed from a CHESTERFIELD® cigarette and mixed with 0.1 grams of Vitamin E acid succinate. The mixed tobacco blend was formed into a filterless cigarette using a Rizla auto rolling box. A control cigarette, without Vitamin E analog additive, was also formed using the same Rizla auto rolling box.

The test system of the next series is non-tobacco user. Briefly: Comparison of a normal smokeless tobacco wad and a wad with dry Vitamin E analog, placed between cheek and gum. In kind it is in vivo. Conditions: 0.1 grams mixed with 10.0 grams SKOAL long cut smokeless tobacco, 1.0 gram wad between cheek and gum. From the text: A third comparison was made between a normal wad of smokeless tobacco and a wad of smokeless tobacco modified to include a substantially pure, “dry” form of Vitamin E analog. For this comparison, 1.0 gram of unmodified SKOAL® long cut smokeless tobacco (i.e., snuff) was first placed in the mouth of a non-tobacco user between the cheek and gum. This unmodified smokeless tobacco produced a pleasant flavor but also a simultaneous burning sensation in the mouth, throat and esophagus which, along with an induced cough, forced the non-tobacco user to spit out the unmodified smokeless tobacco. To clear the burning sensation from mouth, the non-tobacco user washed mouth out with water. Nonetheless, the burning sensation persisted in the mouth and throat for over 5 minutes after the initial washing.
Approximately four hours later, long enough to ensure the sensitivity and the burning sensation had completely subsided, the non-tobacco user then mixed 0.1 grams of Vitamin E acid succinate obtained from the Eastman Chemical Corporation of Kingsport, Tenn. with 10.0 grams of SKOAL® long cut smokeless tobacco. A 1.0 gram wad of this Vitamin E modified smokeless tobacco was then placed in the mouth of the non-tobacco user between the cheek and gum. Like the unmodified snuff, this Vitamin E modified snuff produced a similar pleasant flavor.

The next series deals with non-smoker. The experiment in a line: Comparison of a normal filtered cigarette and cigarettes with oily Vitamin E injected into the filter or the tobacco, puffs by a non-smoker. Conditions: for lung irritation and coughing: three puffs, non-smoker. The series is classed as in vivo. The source says:
A second comparison was made between a normal filtered cigarette, a filtered cigarette with oily Vitamin E injected into the filter and oily Vitamin E injected into the length of the tobacco. In this second comparison, the control cigarette was a normal MARLBORO® cigarette. In two separate MARLBORO® cigarettes, oily Vitamin E was taken from a Vitamin E capsule with a syringe and injected into the filter of one cigarette and into the length of the tobacco of the other cigarette.
The three cigarettes where then lit with a butane lighter and three equal, alternating puffs were taken from each cigarette by a non-smoker. […] The cigarette with Vitamin E along the length of the tobacco yielded no irritation. Moreover, the flavor of the Vitamin E tobacco cigarette gave the impression of having been enhanced.

For series [1] the following is noted: stand-alone additive, apart from an alcohol mixture; cited from earlier work.
For series [2] the following is noted: tobacco air curing, vacuum infiltration; cited from earlier work.

Turning to `Cc1c(C)c2c(c(C)c1OC(=O)CCC(=O)O)CC[C@@](C)(CCC[C@H](C)CCC[C@H](C)CCCC(C)C)O2` [Vitamin E acid succinate, d-alpha tocopheryl acid succinate], the “throat or lung irritation when smoked” value with smoker and non-smoker (0.1 grams mixed with 7.5 grams CHESTERFIELD tobacco, filterless cigarette, smoker and non-smoker, control caused throat and lung irritation) is “no throat or lung irritation”. For the same compound, in the series on smoker and non-smoker (retest after several days and again after several weeks), the “throat or lung irritation, retest on the same samples” value is “the same results”. The “irritation (burning sensation) of mouth, throat and esophagus” value with non-tobacco user is “completely non-irritating”.
For the compound `Cc1c(C)c2c(c(C)c1O)CC[C@@](C)(CCC[C@H](C)CCC[C@H](C)CCCC(C)C)O2` [Vitamin E, d-alpha tocopherol], the “lung irritation and coughing” value in the series with non-smoker (oily Vitamin E injected into the filter of a MARLBORO cigarette, control irritated lungs and induced coughing) is “less irritating but still induced an unpleasant lung reaction and a slight cough”; in the series with non-smoker (oily Vitamin E injected into the length of the tobacco of a MARLBORO cigarette), “no irritation”. Besides, the “beneficial effect on irritation, retest on the same samples” value in the series with non-smoker (retest after several days, taken to indicate the Vitamin E had oxidized/metabolized) was “the beneficial effect was gone”. The “neutralizing NNN” value in series [1] is reported as “ineffective”.
Take `Cc1c(C)c2c(c(C)c1O)CC[C@@](C)(CCC[C@H](C)CCC[C@H](C)CCCC(C)C)O2` [alpha-tocopherol]: in series [2], the “diminution in concentration during the curing process” value was 25%.
